Experiment [1] addresses T1, Nuclear receptor ROR-gamma (Homo sapiens, UniProt P51449).
T1 sequence (P51449 whole entry): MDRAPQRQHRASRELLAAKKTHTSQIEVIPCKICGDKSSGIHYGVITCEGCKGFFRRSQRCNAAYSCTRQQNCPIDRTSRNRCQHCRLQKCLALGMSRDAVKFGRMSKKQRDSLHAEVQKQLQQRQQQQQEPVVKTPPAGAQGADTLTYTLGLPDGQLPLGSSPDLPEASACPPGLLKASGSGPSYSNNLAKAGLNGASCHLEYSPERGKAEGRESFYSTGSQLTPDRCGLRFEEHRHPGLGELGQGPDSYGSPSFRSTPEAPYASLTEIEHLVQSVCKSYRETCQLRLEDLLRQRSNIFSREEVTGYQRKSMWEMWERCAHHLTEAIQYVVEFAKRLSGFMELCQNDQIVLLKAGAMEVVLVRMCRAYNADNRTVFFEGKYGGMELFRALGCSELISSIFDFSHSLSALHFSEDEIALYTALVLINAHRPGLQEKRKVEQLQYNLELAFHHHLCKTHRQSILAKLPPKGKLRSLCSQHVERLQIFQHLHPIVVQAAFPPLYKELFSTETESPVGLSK
As to the kind of experiment: Inverse agonist activity at an N-terminal 6xHis-GST-tag human RORc-LBD assessed as inhibition of recruitment of the SRC1 co-activator peptide after 3 hrs by time-resolved FRET assay. Type of experiment: functional.

For experiment [2], the target named is T1, Nuclear receptor ROR-gamma. As to the kind of experiment: Displacement of [3H2]25-hydroxycholesterol from human RORc-LBD after 3 hrs by scintillation counting.
The target in experiment [3] is T2, Nuclear receptor ROR-beta (Homo sapiens, UniProt Q92753).
T2 sequence (Q92753 whole entry): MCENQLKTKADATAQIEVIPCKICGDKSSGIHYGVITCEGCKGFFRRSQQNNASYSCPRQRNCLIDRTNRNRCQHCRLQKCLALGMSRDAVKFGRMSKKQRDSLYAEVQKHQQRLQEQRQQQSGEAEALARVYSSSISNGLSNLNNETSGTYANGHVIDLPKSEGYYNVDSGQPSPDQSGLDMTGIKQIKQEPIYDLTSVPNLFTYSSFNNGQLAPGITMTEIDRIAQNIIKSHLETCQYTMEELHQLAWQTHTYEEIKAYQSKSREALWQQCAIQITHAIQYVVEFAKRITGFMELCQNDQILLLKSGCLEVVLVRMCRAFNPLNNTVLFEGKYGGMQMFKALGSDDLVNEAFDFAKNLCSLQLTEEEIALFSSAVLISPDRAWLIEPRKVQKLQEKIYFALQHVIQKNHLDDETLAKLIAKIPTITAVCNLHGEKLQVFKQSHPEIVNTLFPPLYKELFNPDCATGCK
The experiment is described as follows: Inverse agonist activity at human GAL4-fused RORb expressed in HEK293 cells after 5 hrs by luciferase reporter gene based transcriptional assay. Type of experiment: cell-based.

In experiment [4] the target is T3, Nuclear receptor ROR-alpha (Homo sapiens, UniProt P35398).
T3 sequence (P35398 whole entry): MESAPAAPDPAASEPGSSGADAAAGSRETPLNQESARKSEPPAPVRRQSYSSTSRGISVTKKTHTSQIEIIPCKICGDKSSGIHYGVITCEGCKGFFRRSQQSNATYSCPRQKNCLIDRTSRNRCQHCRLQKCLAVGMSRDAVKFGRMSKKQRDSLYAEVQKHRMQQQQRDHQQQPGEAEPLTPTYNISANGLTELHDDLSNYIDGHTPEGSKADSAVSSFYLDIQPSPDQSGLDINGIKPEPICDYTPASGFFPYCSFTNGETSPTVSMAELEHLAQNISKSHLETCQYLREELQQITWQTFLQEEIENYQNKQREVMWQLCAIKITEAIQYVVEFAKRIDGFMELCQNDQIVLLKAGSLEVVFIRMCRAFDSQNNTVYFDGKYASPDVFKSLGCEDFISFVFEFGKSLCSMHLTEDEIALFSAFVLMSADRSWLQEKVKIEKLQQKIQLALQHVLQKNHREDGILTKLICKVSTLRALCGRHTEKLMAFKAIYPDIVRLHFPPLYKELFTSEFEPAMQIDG
As to the kind of experiment: Inverse agonist activity at human GAL4-fused RORa expressed in HEK293 cells after 5 hrs by luciferase reporter gene based transcriptional assay. Type of experiment: cell-based. (Reporter assays use an easily measured gene product as a stand-in for the process of interest.)

For experiment [5], the target named is T4, Oxysterols receptor LXR-beta (Homo sapiens, UniProt P55055).
T4 sequence (P55055 whole entry): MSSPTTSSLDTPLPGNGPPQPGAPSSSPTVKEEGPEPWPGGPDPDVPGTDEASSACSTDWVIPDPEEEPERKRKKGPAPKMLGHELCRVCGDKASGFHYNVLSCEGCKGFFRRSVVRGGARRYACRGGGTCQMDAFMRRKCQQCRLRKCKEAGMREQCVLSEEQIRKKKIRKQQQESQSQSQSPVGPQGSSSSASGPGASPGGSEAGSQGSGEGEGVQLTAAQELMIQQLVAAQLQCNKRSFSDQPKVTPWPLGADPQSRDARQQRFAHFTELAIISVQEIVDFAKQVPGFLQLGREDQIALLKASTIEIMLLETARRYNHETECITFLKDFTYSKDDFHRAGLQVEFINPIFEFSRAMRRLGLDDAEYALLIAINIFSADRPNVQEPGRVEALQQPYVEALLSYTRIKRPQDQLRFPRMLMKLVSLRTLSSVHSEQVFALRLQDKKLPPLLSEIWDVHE
The experiment is described as follows: Inverse agonist activity at human GAL4-fused LXRbeta expressed in HEK293 cells assessed as inhibition of T0901317-induced transcriptional activity after 5 hrs by luciferase reporter gene assay. Type of experiment: cell-based.

The target of experiment [6] is T5, Oxysterols receptor LXR-alpha (Homo sapiens, UniProt Q13133).
T5 sequence (Q13133 whole entry): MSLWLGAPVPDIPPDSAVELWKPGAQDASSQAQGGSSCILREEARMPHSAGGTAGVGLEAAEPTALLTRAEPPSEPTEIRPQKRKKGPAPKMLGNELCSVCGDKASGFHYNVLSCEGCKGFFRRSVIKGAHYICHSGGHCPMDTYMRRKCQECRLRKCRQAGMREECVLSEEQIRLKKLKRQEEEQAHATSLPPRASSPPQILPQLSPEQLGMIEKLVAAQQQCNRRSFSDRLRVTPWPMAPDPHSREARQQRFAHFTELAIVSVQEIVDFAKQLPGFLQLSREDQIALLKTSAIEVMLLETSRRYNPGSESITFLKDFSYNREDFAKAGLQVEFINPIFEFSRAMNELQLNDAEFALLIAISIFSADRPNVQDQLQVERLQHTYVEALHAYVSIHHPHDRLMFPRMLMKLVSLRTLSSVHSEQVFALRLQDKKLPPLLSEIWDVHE
The experiment is described as follows: Inverse agonist activity at human GAL4-fused LXRalpha expressed in HEK293 cells assessed as inhibition of T0901317-induced transcriptional activity after 5 hrs by luciferase reporter gene assay. The class given is cell-based.

The EC50 is the concentration at which the effect is half-maximal. The term IC50 denotes the concentration that inhibits the measured activity by half.

Regarding `CC(C)CN(Cc1cnc(-c2ccc(S(C)(=O)=O)cc2)s1)S(=O)(=O)Cc1ccccc1`, the half-maximal effective concentration (EC50) in experiment [1] was over 10 µM. Besides, in experiment [2], the concentration for half-maximal inhibition (IC50) was over 10 µM.
`CC(C)CN(Cc1ccc(-c2ccc(S(C)(=O)=O)cc2)s1)S(=O)(=O)Cc1ccccc1`: the 50% effective concentration (EC50) in experiment [3] came to 2.2 µM; in experiment [4], 2.8 µM; in experiment [5] it was 3.9 µM; in experiment [6], 3.7 µM.
Taken in the same sequence, the figures for `CC(C)CN(Cc1ccc(-c2ccc(C(N)=O)cc2)cc1)S(=O)(=O)Cc1ccccc1` were over 10 µM, over 10 µM, over 10 µM and over 10 µM.
In the case of `CC(C)CN(Cc1cccc(-c2ccc(S(C)(=O)=O)cc2)c1)S(=O)(=O)Cc1ccccc1`, in experiment [1], the concentration giving a half-maximal response (EC50) was over 10 µM. In experiment [2], this compound came in with a 50% inhibitory concentration (IC50) of over 10 µM.
The compound `CC(C)CN(Cc1ccc(-c2ccc(C#N)nc2)s1)S(=O)(=O)Cc1ccccc1` registered an IC50 in experiment [2] of over 10 µM.
For `CC(C)CN(Cc1ccc(-c2cccc(S(C)(=O)=O)c2)s1)S(=O)(=O)Cc1ccccc1`, the half-maximal effective concentration (EC50) in experiment [3] was determined as 5 µM; in experiment [4], 4.2 µM.
As to `CC(C)CN(Cc1ccc(-c2ccc(NS(C)(=O)=O)cc2)cc1)S(=O)(=O)Cc1ccccc1`, the half-maximal effective concentration (EC50) worked out at 3.7 µM in experiment [3], 3.8 µM in experiment [4], 3.8 µM in experiment [5] and 3.6 µM in experiment [6].
